Measured values taken from patent US7579325B2, “Drugs containing reduced of vitamin B2” (Eisai R & D Management Co., Ltd., priority 2001, dated 2009).

Tests used:
E. coli E01292 strain = assay: Effect on E. coli-infected model (mouse survival); type: in vivo; settings: for survival number / survival rate %: male ICR mice, 10 per group, 4 days after inoculation
Experimental: Twelve mg of riboflavin sodium phosphate (FMN-Na, JP grade) was dissolved in 40 ml of physiological saline and then added and mixed with 480 mg of sodium hydrosulfite to produce leucoflavin phosphate (FMN-H2).
Male mice (Slc: ICR, 8-week old) (10 mice per each test group) was administered intraperitoneally with each of riboflavin sodium phosphate (dosage: 12.5, 25, 50 and 100 mg/kg in dosage volumes of 0.125, 0.25, 0.5 and 1 ml, respectively) and leucoflavin phosphate (dosage: 1.25, 2.5, 5 and 10 mg/kg in dosage volumes of 0.125, 0.25, 0.5 and 1 ml, respectively) which had been dissolved in physiological saline and sterilized by filtration. Twenty-four hours after the administration, E. coli E01292 strain was inoculated subcutaneously at a dose of 5.3×10^7 CFU/mouse (suspended in 0.2 ml of physiological saline), and the survival rate was determined 4 days after the inoculation. In the control group, 1.0 ml of physiological saline was administered intraperitoneally instead of the drugs. The determination of the medicinal efficacy was conducted by χ^2 test.

[1] = test system: Staphylococcus aureus BO-72 strain; assay: Effect on Staphylococcus aureus-infected model (mouse survival); type: in vivo; settings: for survival number / survival rate %: male ICR mice, 10 per group, 10 days after inoculation
Experimental: (§1) Riboflavin sodium phosphate (FMN-Na, JP grade) and leucoflavin sodium phosphate (FMN-H2) prepared in Example 1 were used.
Male mice (Slc: ICR, 8-week old) (10 mice per each test group) was administered intraperitoneally with each of riboflavin sodium phosphate (dosage: 25, 50 and 100 mg/kg in dosage volumes of 0.25, 0.5 and 1 ml, respectively) and leucoflavin phosphate (dosage: 2.5, 5 and 10 mg/kg in dosage volumes of 0.25, 0.5 and 1 ml, respectively) which had been dissolved in physiological saline and sterilized by filtration. Twenty-four hours after the administration, Staphylococcus aureus BO-72 strain was administered intravenously at a dose of 8.7×10^7 CFU/mouse (suspended in 0.2 ml of physiological saline), and the survival rate was determined 10 days after the inoculation. In the control group, 1.0 ml of physiological saline was administered intraperitoneally instead of the drugs. The determination of the medicinal efficacy was conducted by χ^2 test.

[2] = Effect on endotoxin shock model (LPS, mouse survival); type: in vivo, mice; settings: for survival number / survival rate %: male ICR mice, 10 per group, 4 days after administration
Experimental: as §1
Male mice (Slc: ICR, 6-week old) (10 mice per each test group) was administered intraperitoneally with lipopolysaccharide from E. coli serum type 0111-B4 (Sigma; abbreviated as “LPS” hereinbelow) at a dose of 15 mg/kg.
Six hours after the administration, each of riboflavin sodium phosphate (dosage: […] in dosage volumes of 0.25, 0.5 and 1 ml, respectively) and leucoflavin phosphate (dosage: 2.5, 5 and 10 mg/kg in dosage volumes of 0.25, 0.5 and 1 ml, respectively) which had been dissolved in physiological saline and sterilized by filtration was administered intraperitoneally. The survival rate was determined 4 days after the administration. In the control group, 1.0 ml of physiological saline was administered intraperitoneally instead of the drugs. The determination of the medicinal efficacy was conducted by χ^2 test.

[3] = 1.25 mg/kg i.p. 24 h before s.c. E. coli inoculation
[4] = 2.5 mg/kg i.p. 24 h before s.c. E. coli inoculation
[5] = 5 mg/kg i.p. 24 h before s.c. E. coli inoculation
[6] = 10 mg/kg i.p. 24 h before s.c. E. coli inoculation
[7] = 2.5 mg/kg i.p. 24 h before i.v. S. aureus
[8] = 5 mg/kg i.p. 24 h before i.v. S. aureus
[9] = 10 mg/kg i.p. 24 h before i.v. S. aureus
[10] = 2.5 mg/kg i.p. 6 h after LPS 15 mg/kg i.p.
[11] = 5 mg/kg i.p. 6 h after LPS 15 mg/kg i.p.
[12] = 10 mg/kg i.p. 6 h after LPS 15 mg/kg i.p.
[13] = 12.5 mg/kg i.p. 24 h before s.c. E. coli inoculation
[14] = 25 mg/kg i.p. 24 h before s.c. E. coli inoculation
[15] = 50 mg/kg i.p. 24 h before s.c. E. coli inoculation
[16] = 100 mg/kg i.p. 24 h before s.c. E. coli inoculation
[17] = 25 mg/kg i.p. 24 h before i.v. S. aureus
[18] = 50 mg/kg i.p. 24 h before i.v. S. aureus
[19] = 100 mg/kg i.p. 24 h before i.v. S. aureus
[20] = 20 mg/kg i.p. 6 h after LPS 15 mg/kg i.p.

SMILES: Cc1cc2c(cc1C)N(C[C@H](O)[C@H](O)[C@H](O)COP(=O)(O)O)c1[nH]c(=O)[nH]c(=O)c1N2 [FMN-H2, leucoflavin phosphate]
- survival number (E. coli E01292 strain; [3]): 0
- survival rate % (E. coli E01292 strain; [3]): 10%
- survival number (E. coli E01292 strain; [4]): 4
- survival rate % (E. coli E01292 strain; [4]): 40%
- survival number (E. coli E01292 strain; [5]): 6
- survival rate % (E. coli E01292 strain; [5]): 60%
- survival number (E. coli E01292 strain; [6]): 9
- survival rate % (E. coli E01292 strain; [6]): 90%
- infection-protective effect against E. coli compared with riboflavin sodium phosphate (E. coli E01292 strain; mice, from Table 1): about 10 fold
- survival number [1, 7]: 3
- survival rate % [1, 7]: 30%
- survival number [1, 8]: 6
- survival rate % [1, 8]: 60%
- survival number [1, 9]: 8
- survival rate % [1, 9]: 80%
- infection-protective effect against Staphylococcus aureus compared with riboflavin sodium phosphate ([1]; mice, from Table 2): about 10 fold
- survival number [2, 10]: 2
- survival rate % [2, 10]: 20%
- survival number [2, 11]: 6
- survival rate % [2, 11]: 60%
- survival number [2, 12]: 8
- survival rate % [2, 12]: 80%
- life-saving effect on endotoxin shock compared with riboflavin sodium phosphate ([2]; mice, from Table 3): about 2 fold

SMILES: Cc1cc2nc3c(=O)[nH]c(=O)nc-3n(C[C@H](O)[C@H](O)[C@H](O)COP(=O)(O)O)c2cc1C [VB2Na, riboflavin sodium phosphate, reference compound]
- survival number (E. coli E01292 strain; [13]): 1
- survival rate % (E. coli E01292 strain; [13]): 10%
- survival number (E. coli E01292 strain; [14]): 3
- survival rate % (E. coli E01292 strain; [14]): 30%
- survival number (E. coli E01292 strain; [15]): 5
- survival rate % (E. coli E01292 strain; [15]): 50%
- survival number (E. coli E01292 strain; [16]): 9
- survival rate % (E. coli E01292 strain; [16]): 90%
- survival number [1, 17]: 2
- survival rate % [1, 17]: 20%
- survival number [1, 18]: 4
- survival rate % [1, 18]: 40%
- survival number [1, 19]: 7
- survival rate % [1, 19]: 70%
- survival number [2, 11]: 3
- survival rate % [2, 11]: 30%
- survival number [2, 12]: 4
- survival rate % [2, 12]: 40%
- survival number [2, 20]: 7
- survival rate % [2, 20]: 70%
